Measured values taken from ChEMBL document CHEMBL5728291, “Pyrazole MAGL inhibitors” (2021).
pIC50: −log10 of the molar value.

Target: T1, Monoglyceride lipase (Homo sapiens, UniProt Q99685)
T1 sequence (Q99685 whole entry): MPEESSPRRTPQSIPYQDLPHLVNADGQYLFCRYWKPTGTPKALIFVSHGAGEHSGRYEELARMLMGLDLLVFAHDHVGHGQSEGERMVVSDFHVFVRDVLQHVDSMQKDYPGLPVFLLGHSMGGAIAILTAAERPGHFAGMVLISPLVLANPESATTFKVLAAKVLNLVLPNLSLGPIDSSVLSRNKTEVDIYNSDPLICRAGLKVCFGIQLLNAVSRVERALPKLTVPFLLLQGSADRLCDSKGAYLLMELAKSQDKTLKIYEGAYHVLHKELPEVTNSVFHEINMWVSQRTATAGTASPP
Assay: In Vitro Competitive Activity-Based Protein Profiling: Proteomes (mouse brain membrane fraction for mouse assays; human prefrontal cortex membrane fractions for human assays) (50 mL, 1.0 mg/mL total protein concentration) were preincubated with varying concentrations of inhibitors at 37° C. After 30 min, FP-Rh (1.0 mL, 50 mM in DMSO) was added and the mixture was incubated for another 30 min at 37° C.

pIC50: > 7.00
SMILES: O=C(O)c1ccn(C(=O)N2C[C@H]3C[C@H](Oc4cc(Cl)ccc4C(F)(F)F)C[C@H]3C2)n1
